# Reference: US7495104B2, “Quinoline or quinazoline derivatives inhibiting auto-phosphorylation of fibroblast growth factor receptors” (Kirin Beer Kabushiki Kaisha, priority 2001, dated 2009)
# Molecular target: Bek (Homo sapiens, UniProt P21802)
# Assay: Inhibitory activity against Bek-autophosphorylation using ELISA method in OCUM-2MD3 cells
# Format: cell-based
# Settings: 1 hr with compound, read-out: IC50 (concentration necessary for inhibiting 50% of Bek-phosphorylation)
# Procedure: Human scirrhus stomach cancer cells OCUM-2MD3 (kindly provided by Dr. Kosei Hirakawa, Osaka City University) were cultured in an RPMI medium containing 10% fetal calf serum (purchased from ICN) within a 5% carbon dioxide incubator until 50 to 90% confluent. The harvested cells were seeded onto 96-well flat-bottom plate in RPMI containing 0.1% fetal calf serum at 3.5×10^4 cells per well, followed by cultivation at 37° C. overnight. A solution of the test compound in dimethyl sulfoxide was added to each well, and the cultivation was continued at 37° C. for additional one hr. The medium was removed, and 50 μl of lysis buffer (20 mM HEPES (pH 7.4), 150 mM NaCl, 0.2% Triton X-100, 10% glycerol, 5 mM sodium orthovanadylate, 5 mM disodium ethylenediaminetetraacetate, and 2 mM Na4P2O7) was then added thereto. The mixture was shaken at 4° C. for 2 hr to prepare cell extracts.
# Separately, phosphate buffered saline (50 μl, pH 7.4) containing 5 μg/ml of anti-phospho-tyrosine antibody (PY20; purchased from Transduction Laboratories) was added to a microplate for ELISA (Maxisorp; purchased from NUNC), followed by standing at 4° C. overnight to form a solid phase on the wells. After washing of the plate, 300 μl of a blocking solution was added, followed by standing at room temperature for 2 hr to perform blocking. After washing, the whole quantity of the cell extracts was transferred to the wells, and the plate was then allowed to stand at 4° C. overnight. After washing, an anti-Bek antibody (Bek (C-17), purchased from Santa Cruz Biotechnology) or Anti-Human K-sam Rabbit IgG Affinity Purity (purchased from IBL Co., Ltd.) was allowed to react at room temperature for one hr, and, after washing, a peroxidase-labeled anti-rabbit Ig antibody (purchased from Amersham) was allowed to react at room temperature for one hr. After washing, a chromophoric substrate for peroxidase (purchased from Sumitomo Bakelite Co., Ltd.) was added thereto to initiate a reaction. After a suitable level of color development, a reaction termination solution was added to stop the reaction, and the absorbance at 450 nm was measured with a microplate reader. The Bek-phosphorylation activity for each well was determined by presuming the absorbance without the addition of the medicament to be 100% Bek-phosphorylation activity and the absorbance with the addition of a large excess of a positive control (N-{4-[(6,7-dimethoxy-4-quinolyl)oxy]phenyl}-N′-(3,3-dimethylbutyl)urea, 1000 nM) to be 0% Bek-phosphorylation activity. The concentration of the test compound was varied on several levels, the Bek-phosphorylation inhibitory activity was determined for each case, and the concentration of the test compound necessary for inhibiting 50% of Bek-phosphorylation (IC50) was calculated.
# Sequence of Bek (P21802 431-767 limits assumed): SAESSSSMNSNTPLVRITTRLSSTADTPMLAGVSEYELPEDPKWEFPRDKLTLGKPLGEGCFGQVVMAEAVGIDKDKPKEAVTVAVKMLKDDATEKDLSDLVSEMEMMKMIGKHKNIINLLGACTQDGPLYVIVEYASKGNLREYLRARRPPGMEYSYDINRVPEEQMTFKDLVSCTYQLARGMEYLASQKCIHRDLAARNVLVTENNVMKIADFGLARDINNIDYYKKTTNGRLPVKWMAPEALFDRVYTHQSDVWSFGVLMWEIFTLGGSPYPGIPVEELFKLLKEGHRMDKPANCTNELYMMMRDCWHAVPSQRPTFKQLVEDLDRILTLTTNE
row,IC50,SMILES
1,178 nM,"COc1cc2c(Oc3ccc(NC(=O)NCCC(C)(C)C)c(Cl)c3)ccnc2cc1OCCN1CCC(C)CC1 [Compound 117, 1-(2-Chloro-4-{6-methoxy-7-[2-(4-methyl-piperidin-1-yl)-ethoxy]-quinolin-4-yloxy}-phenyl)-3-(3,3-dimethyl-butyl)-urea]"
2,157 nM,"COc1cc2c(Oc3ccc(NC(=O)NCCC(C)(C)C)cc3)ccnc2cc1OCCN(CCO)Cc1ccccc1 [Compound 368, 1-[4-(7-{2-[Benzyl-(2-hydroxy-ethyl)-amino]-ethoxy}-6-methoxy-quinolin-4-yloxy)-phenyl]-3-(3,3-dimethyl-butyl)-urea]"
3,126 nM,"COc1cc2nccc(Oc3ccc(Nc4ccc(C(C)(C)C)cc4)cc3)c2cc1OCC(O)CN1CCOCC1 (stereo not shown) [Compound 213, 1-{4-[4-(4-Tert-butyl-phenylamino)-phenoxy]-7-methoxy-quinolin-6-yloxy}-3-morpholin-4-yl-propan-2-ol]"
4,218 nM,"COc1cc2nccc(Oc3ccc(NC(=O)NCCC(C)(C)CC(C)(C)C)c(F)c3)c2cc1OC [Compound 149, 1-[4-(6,7-Dimethoxy-quinolin-4-yloxy)-2-fluoro-phenyl]-3-(3,3,5,5-tetramethyl-hexyl)-urea]"
5,28 nM,"COc1cc2c(Oc3ccc(NC(=O)NCCC(C)(C)C)cc3)ccnc2cc1OCC(=O)N1CCOCC1 [Compound 375, 1-(3,3-Dimethyl-butyl)-3-{4-[6-methoxy-7-(2-morpholin-4-yl-2-oxo-ethoxy)-quinolin-4-yloxy]-phenyl}-urea]"
6,265 nM,"COc1cc2nccc(Oc3cc(C)c(NC(=O)NCCC(C)(C)C)cc3C)c2cc1OC [Compound 142, 1-[4-(6,7-Dimethoxy-quinolin-4-yloxy)-2,5-dimethyl-phenyl]-3-(3,3-dimethyl-butyl)-urea]"
7,27.8 nM,"COc1cc2nccc(Oc3ccc(NC(=O)NCCC(C)(C)C)cc3F)c2cc1OC [Compound 102, 1-[4-(6,7-Dimethoxy-quinolin-4-yloxy)-3-fluorophenyl]-3-(3,3-dimethyl-butyl)-urea]"
8,38.4 nM,"CCC(CO)(CO)NCCOc1cc2nccc(Oc3ccc(NC(=O)NCCC(C)(C)C)cc3)c2cc1OC [Compound 354, 1-(4-{7-[2-(1,1-Bis-hydroxymethyl-propylamino)-ethoxy]-6-methoxy-quinolin-4-yloxy}-phenyl)-3-(3,3-dimethyl-butyl)-urea]"
9,174 nM,"COc1cc2c(Oc3ccc(Nc4ccc(C(C)(C)C)cc4)cc3)ccnc2cc1OCCCN1CCC(O)CC1 [Compound 216, 1-(3-{4-[4-(4-Tert-butyl-phenylamino)-phenoxy]-6-methoxy-quinolin-7-yloxy}-propyl)-piperidin-4-ol]"
10,324 nM,"COc1cc2c(Oc3ccc(Nc4ccc(C(C)(C)C)cc4)cc3)ccnc2cc1OCCCN1CCCCCC1 [Compound 54, {4-[7-(3-Azepan-1-ylpropoxy)-6-methoxyquinolin-4-yloxyl]-phenyl}-(4-tert-butylphenyl)amine]"
11,< 10 nM,"COc1cc2c(Oc3ccc(NC(=O)NCCC(C)(C)C)c(Cl)c3)ccnc2cc1OCC(O)CN1CCOCC1 (stereo not shown) [Compound 195, 1-{2-Chloro-4-[7-(2-hydroxy-3-morpholin-4-yl-propoxy)-6-methoxy-quinolin-4-yloxy]-phenyl}-3-(3,3-dimethyl-butyl)-urea]"
12,< 10 nM,"COc1cc2c(Oc3ccc(NC(=O)NCCC(C)(C)C)cc3)ccnc2cc1OCCCN1CCC(CO)CC1 [Compound 265, 1-(3,3-Dimethyl-butyl)-3-(4-{7-[3-(4-hydroxymethyl-piperidin-1-yl)-propoxy]-6-methoxy-quinolin-4-yloxy}-phenyl)-urea]"
13,< 10 nM,"COc1cc2c(Oc3ccc(NC(=O)NCCC(C)(C)C)c(Cl)c3)ccnc2cc1OCCCN(C)CCO [Compound 178, 1-[2-Chloro-4-(7-{3-[(2-hydroxy-ethyl)-methyl-amino]-propoxy}-6-methoxy-quinolin-4-yloxy)-phenyl]-3-(3,3-dimethyl-butyl)-urea]"

# Second part, the molecule before the results:
row,SMILES,IC50
1,"COc1cc2c(Oc3ccc(Nc4ccc(C(C)(C)C)cc4)cc3)ccnc2cc1OCC(O)CN1CC(C)CC(C)C1 (stereo not shown) [Compound 254, 1-{4-[4-(4-Tert-butyl-phenylamino)-phenoxy]-6-methoxy-quinolin-7-yloxy}-3-(3,5-dimethyl-piperidin-1-yl)-propan-2-ol]",94.2 nM
2,"COCC(C)NCCOc1cc2nccc(Oc3ccc(Nc4ccc(C(C)(C)C)cc4)cc3)c2cc1OC (stereo not shown) [Compound 363, N1-[4-(Tert-butyl)phenyl]-4-[(6-methoxy-7-{2-[(2-methoxy-1-methylethyl)amino]ethoxy}-4-quinolyl)oxy]aniline]",364 nM
3,"COc1cc(Oc2ccnc3cc(OC)c(OC)cc23)ccc1Nc1ccc(C(C)(C)C)cc1 [Compound 14, (4-Tert-butylphenyl)-[4-(6,7-dimethoxyquinolin-4-yloxy)-2-methoxyphenyl]amine]",1920 nM
4,"COc1cc2c(Oc3ccc(NC(=O)NCCC(C)(C)C)cc3)ccnc2cc1OCCCCCl [Compound 153, 1-{4-[7-(4-Chloro-butoxy)-6-methoxy-quinolin-4-yloxy]-phenyl}-3-(3,3-dimethyl-butyl)-urea]",241 nM
5,"COc1cc2c(Oc3ccc(Nc4ccc(C(C)(C)C)cc4)cc3)ccnc2cc1OCC1CCCN1C (stereo not shown) [Compound 58, (4-Tert-butylphenyl)-{4-[6-methoxy-7-(1-methylpyrrolidin-2-ylmethoxy)quinolin-4-yloxy]phenyl}amine]",1200 nM
6,"COc1cc2c(Oc3ccc(Nc4ccc(C(C)(C)C)cc4)cc3)ccnc2cc1OCCN(CCO)Cc1ccccc1 [Compound 365, 2-[Benzyl-(2-{4-[4-(4-tert-butyl-phenylamino)-phenoxy]-6-methoxy-quinolin-7-yloxy}-ethyl)-amino]-ethanol]",7130 nM
7,"COc1cc2c(Oc3ccc(Nc4ccc(C(C)(C)C)cc4)cc3F)ccnc2cc1OCCCN1CCC(CCO)CC1 [Compound 272, 2-[1-(3-{4-[4-(4-Tert-butyl-phenylamino)-2-fluoro-phenoxy]-6-methoxy-quinolin-7-yloxy}-propyl)-piperidin-4-yl]-ethanol]",151 nM
8,"COc1cc2nccc(Oc3ccc(Nc4ccc(C(C)(C)C)cc4)cc3Cl)c2cc1OC [Compound 12, (4-Tert-butylphenyl)-[3-chloro-4-(6,7-dimethoxyquinolin-4-yloxy)phenyl]amine]",285 nM
9,"COc1cc2c(Oc3ccc(Nc4ccc(C(C)(C)C)cc4)cc3)ccnc2cc1OCCCCl [Compound 23, (4-Tert-butylphenyl)-{4-[7-(3-chloropropoxy)-6-methoxyquinolin-4-yloxy]phenyl}amine]",762 nM
10,"COc1cc2c(Oc3ccc(NC(=O)NCCC(C)(C)C)c(Cl)c3)ccnc2cc1OCCCCN1C(=O)c2ccccc2C1=O [Compound 164, 1-(2-Chloro-4-{7-[4-(1,3-dioxo-1,3-dihydro-isoindol-2-yl)-butoxy]-6-methoxy-quinolin-4-yloxy}-phenyl)-3-(3,3-dimethyl-butyl)-urea]",260 nM
11,"COc1cc2c(Oc3ccc(Nc4ccc(C(C)(C)C)cc4)cc3F)ccnc2cc1OCCN1CCC(CO)CC1 [Compound 283, [1-(2-{4-[4-(4-Tert-butyl-phenylamino)-2-fluoro-phenoxy]-6-methoxy-quinolin-7-yloxy}-ethyl)-piperidin-4-yl]-methanol]",167 nM
12,"COc1cc2c(Oc3ccc(NC(=O)NC4CCCC(C)(C)C4)c(F)c3)ccnc2cc1OCCN1CC(C)OC(C)C1 (stereo not shown) [Compound 134, 1-(3,3-Dimethyl-cyclohexyl)-3-(4-{7-[2-(2,6-dimethyl-morpholin-4-yl)-ethoxy]-6-methoxy-quinolin-4-yloxy}-2-fluoro-phenyl)-urea]",11.8 nM
